In assay [1] the test system is melon (Cucumis melo) fruit acid form alpha-galactosidase. As to the kind of experiment: Substrate kinetics (Lineweaver-Burk) of acid alpha-galactosidase. Type of assay: biochemical, muskmelon (Cucumis melo L. cv C-8). On the procedure:
For routine analysis and monitoring the activity in the purification steps, alpha-galactosidase was assayed as described by Smart and Pharr (“Characterization of alpha-galactosidase from cucumber leaves”, Plant Physiology, 66:731-734, 1980), using p-nitrophenyl alpha-galactoside (pNPG) as substrate. […] The reaction was terminated after 10 min by adding 1 ml of 5% (w/v) Na2CO3 and activity expressed as nmol nitrophenol per min as measured at 410 nm. […] The assay was started by adding 50 μl enzyme preparation at 35 C and terminated after 10 to 20 min by 2 min boiling. […] For the partial purification of the acid form of alpha-galactosidase the fractions active at pH 5.5 were pooled and concentrated by reverse dialysis against solid sucrose. […] The active fractions were then desalted by dialysis against buffer A for 12 hours with two changes of the buffer. This enzyme fraction was used for the characterization of the acidic form of alpha-galactosidase. […] The substrate specificity of the alpha-galactosidases was tested with pNPG, stachyose, raffinose, melibiose or guar gum (Sigma).

For assay [2] the test system is unchanged. As to the kind of experiment: Inhibition of acid alpha-galactosidase by alternative substrate (galactose release). Conditions: 80 mM stachyose added to 10 mM raffinose. Type of assay: biochemical, muskmelon (Cucumis melo L. cv C-8). The procedure: For routine analysis and monitoring the activity in the purification steps, alpha-galactosidase was assayed as described by Smart and Pharr (“Characterization of alpha-galactosidase from cucumber leaves”, Plant Physiology, 66:731-734, 1980), using p-nitrophenyl alpha-galactoside (pNPG) as substrate. […] The reaction was terminated after 10 min by adding 1 ml of 5% (w/v) Na2CO3 and activity expressed as nmol nitrophenol per min as measured at 410 nm. […] The substrate specificity of the alpha-galactosidases was tested with pNPG, stachyose, raffinose, melibiose or guar gum (Sigma).

The test system of assay [3] is Cucurbita pepo leaf alkaline alpha-galactosidase ("LIV" enzyme). As to the kind of experiment: Substrate kinetics of Cucurbita pepo leaf alkaline alpha-galactosidase (Gaudreault and Webb). Type of assay: biochemical. Conditions: calculated for prior art "LIV" enzyme of Gaudreault and Webb.
Assay [4] concerns the target T1, melon (Cucumis melo) fruit alkaline alpha-galactosidase Form I (Cucumis melo, UniProt Q84NI7).
T1 sequence (Q84NI7 1-754): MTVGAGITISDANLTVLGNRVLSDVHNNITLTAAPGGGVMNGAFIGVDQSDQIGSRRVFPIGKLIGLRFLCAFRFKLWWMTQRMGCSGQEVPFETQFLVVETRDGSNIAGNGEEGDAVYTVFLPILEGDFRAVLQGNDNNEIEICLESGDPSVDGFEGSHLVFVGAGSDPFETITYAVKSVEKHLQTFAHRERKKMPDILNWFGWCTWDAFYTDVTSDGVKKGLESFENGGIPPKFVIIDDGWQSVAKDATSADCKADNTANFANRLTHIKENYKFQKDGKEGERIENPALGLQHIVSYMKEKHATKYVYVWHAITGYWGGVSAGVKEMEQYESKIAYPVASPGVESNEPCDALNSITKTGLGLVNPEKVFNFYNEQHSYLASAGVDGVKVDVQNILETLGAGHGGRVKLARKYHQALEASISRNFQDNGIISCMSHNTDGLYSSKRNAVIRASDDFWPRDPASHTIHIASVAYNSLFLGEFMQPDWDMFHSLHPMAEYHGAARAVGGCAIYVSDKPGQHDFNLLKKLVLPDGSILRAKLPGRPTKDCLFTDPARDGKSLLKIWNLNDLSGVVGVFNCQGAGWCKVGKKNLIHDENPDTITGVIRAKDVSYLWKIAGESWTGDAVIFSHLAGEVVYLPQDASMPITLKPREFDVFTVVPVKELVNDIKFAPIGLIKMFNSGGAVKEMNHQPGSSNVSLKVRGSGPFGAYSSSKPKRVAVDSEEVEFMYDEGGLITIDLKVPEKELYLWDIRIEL
As to the kind of experiment: Inhibition of alkaline alpha-galactosidase Form I by alternative substrate (galactose release). Type of assay: biochemical, muskmelon (Cucumis melo L. cv C-8). Also noted: native 84 kDa, denatured 79 kDa; assayed at pH 7.5. On the procedure:
For routine analysis and monitoring the activity in the purification steps, alpha-galactosidase was assayed as described by Smart and Pharr (“Characterization of alpha-galactosidase from cucumber leaves”, Plant Physiology, 66:731-734, 1980), using p-nitrophenyl alpha-galactoside (pNPG) as substrate. Reaction was initiated by adding 50 μl enzyme aliquot to either 200 μl 100 mM pH 5.5 McIlvaine buffer or 100 mM pH 7.5 HEPES buffer, containing 5 mM pNPG at 35 C. The reaction was terminated after 10 min by adding 1 ml of 5% (w/v) Na2CO3 and activity expressed as nmol nitrophenol per min as measured at 410 nm. […] The assay was started by adding 50 μl enzyme preparation at 35 C and terminated after 10 to 20 min by 2 min boiling.

These results are taken from patent publication US7514254B2, “Plant-derived alkaline alpha-galactosidase” (The State of Israel, Ministry of Agriculture & Rural …, priority 1998, dated 2009).

“Also recorded” adds a separate entry of the source.

As a reminder, the Km is the concentration of substrate that gives half-maximal velocity.

Turning to `OC[C@H]1O[C@H](OC[C@H]2O[C@H](OC[C@H]3O[C@H](O[C@]4(CO)O[C@H](CO)[C@@H](O)[C@@H]4O)[C@H](O)[C@@H](O)[C@@H]3O)[C@H](O)[C@@H](O)[C@H]2O)[C@H](O)[C@@H](O)[C@H]1O` [Stachyose, O-alpha-D-galactopyranosyl-(1-6)-O-alpha-D-galactopyranosyl-(1-6)-O-alpha-D-glucopyranosyl-(1-2)-beta-D-fructofuranoside], in assay [1], the Vmax/Km ratio came out at 0.02. Further, in assay [1] (Lineweaver-Burk), the Michaelis-Menten constant (Km) came to 10.5 mM and the Vmax was 0.23 μmol mg^−1 protein min^−1. Moreover, the “inhibition by excess stachyose (free galactose release)” value in assay [2] is 45%. For the same compound, in assay [3], the Vmax/Km ratio was 0.65. The “inhibition by excess stachyose (free galactose release, in words)” value in assay [4] is “negligible; also recorded: does not decrease”.
